These results are taken from patent US8318184B2, “MGLU2 agonists” (Eli Lilly and Company, priority 2009, dated 2012).

One assay relates to Sprague-Dawley rats. Put plainly: Reversal of Phencyclidine (PCP)-Induced Hyperlocomotor Activity in Rats. Format: in vivo. Particulars: Rattus norvegicus. An excerpt:
Administration of NMDA receptor antagonists, such as ketamine or phencyclidine (PCP), produces psychotomimetic-like effects in humans that are similar to those symptoms observed in patients with schizophrenia.
Motor activity is monitored by placing individual male, Sprague-Dawley (Harlan, Indianapolis, Ind.) rats in transparent, plastic shoe-box cages of the dimensions 45×25×20 cm, with 1 cm depth of wood chips as bedding, and a metal grill on top of the cage. Motor monitors (Kinder Scientific) consist of a rectangular rack of 12 photobeams arranged in an 8×4 formation, (or a high density grouping of 22 in a 15×7 pattern) at a height of 5 cm, with a second rack (for measuring rearing behaviors) at a height of 15 cm. The shoe box cage is placed inside of these racks, with the racks on a 3 foot high tabletop in an isolated room. A compound of the present invention is dosed (intraperitoneal route (i.p.), non-prodrug) within a range of 0.3-10 mg/kg, 30 minutes prior to a 5 mg/kg challenge dose of phencyclidine (PCP). A compound of the present invention is dosed (oral route, prodrug) within a range of 0.3-30 mg/kg, in overnight fasted rats, 4 hours prior to a 5 mg/kg challenge dose of PCP. On the test day, rats are placed in the test cage and allowed to acclimate for 30 minutes prior to PCP challenge; rats are monitored for an additional 60 minutes following PCP administration.
Data analysis and ED50 calculations are conducted using GraphPad Prism (San Diego, Calif. USA). Power analyses have determined that 8-10 rats per group are needed to have appropriate statistical power for detecting treatment differences (power=0.8). A one-way analysis of variance (ANOVA) with a post-hoc Dunnett's multiple comparison test is conducted on the total 60 minute locomotor activity. ED50 calculations are performed using non-linear regression curve fitting on percent reversal transformed data for each dose.

The test system of a further assay is Fischer F-344 rats. In words: Attenuation of Stress-Induced Hyperthermia in Rats. The assay is classed as in vivo, rat. Particulars: dose producing 35% reduction in stress-induced hyperthermic response. An excerpt: In many anxiety disorders, hyperthermia occurs as part of the pathology and is considered a symptom of the disease. Compounds which attenuate stress-induced hyperthermia in animals are believed to be useful in treating anxiety disorders in humans. Generalized anxiety disorder is an example of such disorders that may be treated with such compounds. The conventional and minimally-invasive method for analyzing stress-induced hyperthermia is by measuring body temperature, and stress-induced increases in body temperature, via rectal thermometer. Male Fischer F-344 rats (Harlan, Indianapolis, Ind., USA) weighing between 275-350 g are tested. All animals are individually-housed with food and automated water available ad libitum, and maintained on a 12 h light/dark cycle (lights on at 06:00). Animals are fasted for approximately 12-18 hours before the experiment, which is conducted during the light phase. Rats are dosed two hours prior to the experiment by either intraperitoneal (i.p., non-prodrug) or per os (p.o., prodrug) route of administration in a dose volume of 1 mL/kg. […]
After the pretreatment period, rats are taken individually to a brightly lit adjacent room where baseline body temperatures are determined by insertion of a rectal probe lubricated with mineral oil. Body temperature is assessed using a […] […] Ten minutes later a second body temperature measurement is recorded (T2). […]

For the compound `N[C@@]1(C(=O)O)C[C@@H](Sc2nnc[nH]2)[C@H]2[C@H](C(=O)O)[C@H]21` [Example 1, (1R,2S,4R,5R,6R)-2-Amino-4-(4H-1,2,4-triazol-3-ylsulfanyl)bicyclo[3.1.0]hexane-2,6-dicarboxylic acid], in the assay with Sprague-Dawley rats (0.5 h, i.p., 30 minutes prior to 5 mg/kg PCP), the median effective dose (ED50) was 1.23 mg/kg. For the same compound, the T35 in the assay with Fischer F-344 rats (i.p.) is 1.27 mg/kg.

In the case of `C[C@H](N)C(=O)N[C@@]1(C(=O)O)C[C@@H](Sc2nnc[nH]2)[C@H]2[C@H](C(=O)O)[C@H]21.Cl` [Example 2, (1R,2S,4R,5R,6R)-2-[[(2S)-2-Aminopropanoyl]amino]-4-(1H-1,2,4-triazol-3-ylsulfanyl)bicyclo[3.1.0]hexane-2,6-dicarboxylic acid hydrochloride], in the assay with Sprague-Dawley rats (p.o., overnight fasted, 4 hours prior to 5 mg/kg PCP), the median effective dose (ED50) worked out at 2.94 mg/kg. The same compound registered a T35 in the assay with Fischer F-344 rats (p.o.) of 16.2 mg/kg.
